In PubChem BioAssay (NCI):
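Tested at 5 concentrations; 48 h exposure; 96-well plates; endpoints linearly interpolated, else capped at highest concentration. The concentration for full growth arrest is given as TGI.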

What was measured:
Experiment in all cases: DTP human tumour cell line panel, 48 h
786-0 renal = test system: 786-0 renal
A498 renal = test system: A498 renal
A549 NSCLC = test system: A549 NSCLC
ACHN renal = test system: ACHN renal
BT-549 breast = test system: BT-549 breast
CAKI-1 renal = test system: CAKI-1 renal
CCRF-CEM leukemia = test system: CCRF-CEM leukemia
COLO 205 colon = test system: COLO 205 colon
DU-145 prostate = test system: DU-145 prostate
EKVX NSCLC = test system: EKVX NSCLC
HCC-2998 colon = test system: HCC-2998 colon
HCT-116 colon = test system: HCT-116 colon
HCT-15 colon = test system: HCT-15 colon
HL-60(TB) leukemia = test system: HL-60(TB) leukemia
HOP-62 NSCLC = test system: HOP-62 NSCLC
HOP-92 NSCLC = test system: HOP-92 NSCLC
HS 578T breast = test system: HS 578T breast
HT29 colon = test system: HT29 colon
IGROV1 ovarian = test system: IGROV1 ovarian
K-562 leukemia = test system: K-562 leukemia
KM12 colon = test system: KM12 colon
LOX IMVI melanoma = test system: LOX IMVI melanoma
M14 melanoma = test system: M14 melanoma
MALME-3M melanoma = test system: MALME-3M melanoma
MCF7 breast = test system: MCF7 breast
MDA-MB-231 breast = test system: MDA-MB-231 breast
MDA-MB-435 = test system: MDA-MB-435
MDA-N = test system: MDA-N
MOLT-4 leukemia = test system: MOLT-4 leukemia
NCI-H226 lung = test system: NCI-H226 lung
NCI-H23 lung = test system: NCI-H23 lung
NCI-H460 lung = test system: NCI-H460 lung
NCI-H522 lung = test system: NCI-H522 lung
NCI/ADR-RES ovarian = test system: NCI/ADR-RES ovarian
OVCAR-3 ovarian = test system: OVCAR-3 ovarian
OVCAR-4 ovarian = test system: OVCAR-4 ovarian
OVCAR-5 ovarian = test system: OVCAR-5 ovarian
OVCAR-8 ovarian = test system: OVCAR-8 ovarian
PC-3 prostate = test system: PC-3 prostate
RPMI-8226 leukemia = test system: RPMI-8226 leukemia
RXF 393 renal = test system: RXF 393 renal
SF-268 CNS = test system: SF-268 CNS
SF-295 CNS = test system: SF-295 CNS
SF-539 CNS = test system: SF-539 CNS
SK-MEL-2 melanoma = test system: SK-MEL-2 melanoma
SK-MEL-28 melanoma = test system: SK-MEL-28 melanoma
SK-MEL-5 melanoma = test system: SK-MEL-5 melanoma
SK-OV-3 ovarian = test system: SK-OV-3 ovarian
SN12C renal = test system: SN12C renal
SNB-19 CNS = test system: SNB-19 CNS
SNB-75 CNS = test system: SNB-75 CNS
SR leukemia = test system: SR leukemia
SW-620 colon = test system: SW-620 colon
T-47D breast = test system: T-47D breast
TK-10 renal = test system: TK-10 renal
U251 CNS = test system: U251 CNS
UACC-257 melanoma = test system: UACC-257 melanoma
UACC-62 melanoma = test system: UACC-62 melanoma
UO-31 renal = test system: UO-31 renal

With `OC1C2CCCCN2C[C@@H](O)[C@H]1O` (stereo partly specified) the TGI (786-0 renal) was > 100 µM, the TGI (A498 renal) was > 100 µM and the TGI (A549 NSCLC) was > 100 µM. The TGI (ACHN renal) was > 100 µM, the TGI (BT-549 breast) was > 100 µM and the TGI (CAKI-1 renal) was > 100 µM. The TGI (CCRF-CEM leukemia) was > 100 µM, the TGI (COLO 205 colon) was > 100 µM and the TGI (DU-145 prostate) was > 100 µM. The TGI (EKVX NSCLC) was > 100 µM, the TGI (HCC-2998 colon) was > 100 µM and the TGI (HCT-116 colon) was > 100 µM. For the same molecule, the TGI (HCT-15 colon) was > 100 µM, the TGI (HL-60(TB) leukemia) was > 100 µM and the TGI (HOP-62 NSCLC) was > 100 µM. The TGI (HOP-92 NSCLC) was > 100 µM, the TGI (HS 578T breast) was > 100 µM and the TGI (HT29 colon) was > 100 µM. The TGI (IGROV1 ovarian) was > 100 µM, the TGI (K-562 leukemia) was > 100 µM and the TGI (KM12 colon) was > 100 µM. For the same molecule, the TGI (LOX IMVI melanoma) was > 100 µM, the TGI (M14 melanoma) was > 100 µM and the TGI (MALME-3M melanoma) was > 100 µM. For the same molecule, the TGI (MCF7 breast) was > 100 µM, the TGI (MDA-MB-231 breast) was > 100 µM and the TGI (MDA-MB-435) was > 100 µM. The TGI (MDA-N) was > 100 µM, the TGI (MOLT-4 leukemia) was > 100 µM and the TGI (NCI-H226 lung) was > 100 µM. For the same molecule, the TGI (NCI-H23 lung) was > 100 µM, the TGI (NCI-H460 lung) was > 100 µM and the TGI (NCI-H522 lung) was > 100 µM. The TGI (NCI/ADR-RES ovarian) was > 100 µM, the TGI (OVCAR-3 ovarian) was > 100 µM and the TGI (OVCAR-4 ovarian) was > 100 µM. For the same molecule, the TGI (OVCAR-5 ovarian) was > 100 µM, the TGI (OVCAR-8 ovarian) was > 100 µM and the TGI (PC-3 prostate) was > 100 µM. For the same molecule, the TGI (RPMI-8226 leukemia) was > 100 µM, the TGI (RXF 393 renal) was > 100 µM and the TGI (SF-268 CNS) was > 100 µM. The TGI (SF-295 CNS) was > 100 µM, the TGI (SF-539 CNS) was > 100 µM and the TGI (SK-MEL-2 melanoma) was > 100 µM. For the same molecule, the TGI (SK-MEL-28 melanoma) was > 100 µM, the TGI (SK-MEL-5 melanoma) was > 100 µM and the TGI (SK-OV-3 ovarian) was > 100 µM. The TGI (SN12C renal) was > 100 µM, the TGI (SNB-19 CNS) was > 100 µM and the TGI (SNB-75 CNS) was > 100 µM. The TGI (SR leukemia) was > 100 µM, the TGI (SW-620 colon) was > 100 µM and the TGI (T-47D breast) was > 100 µM. The TGI (TK-10 renal) was > 100 µM, the TGI (U251 CNS) was > 100 µM and the TGI (UACC-257 melanoma) was > 100 µM. The TGI (UACC-62 melanoma) was > 100 µM and the TGI (UO-31 renal) was > 100 µM.
In the case of `Cc1cc(-c2nc3cc(F)ccc3s2)ccc1N`, the TGI (786-0 renal) is reported as > 79.4 µM, the TGI (A498 renal) is reported as 66.8 µM and the TGI (A549 NSCLC) is reported as > 100 µM. The TGI (ACHN renal) was > 87.3 µM, the TGI (BT-549 breast) was > 100 µM and the TGI (CAKI-1 renal) was > 94 µM. The TGI (CCRF-CEM leukemia) was > 100 µM, the TGI (COLO 205 colon) was > 67.3 µM and the TGI (DU-145 prostate) was > 92.1 µM. The TGI (EKVX NSCLC) was > 85.3 µM, the TGI (HCC-2998 colon) was > 100 µM and the TGI (HCT-116 colon) was > 91 µM. The TGI (HCT-15 colon) was > 100 µM, the TGI (HL-60(TB) leukemia) was > 100 µM and the TGI (HOP-62 NSCLC) was 72 µM. The TGI (HOP-92 NSCLC) was > 78 µM, the TGI (HS 578T breast) was > 82 µM and the TGI (HT29 colon) was > 100 µM. The TGI (IGROV1 ovarian) was > 100 µM, the TGI (K-562 leukemia) was > 100 µM and the TGI (KM12 colon) was > 100 µM. For the same molecule, the TGI (LOX IMVI melanoma) was > 100 µM, the TGI (M14 melanoma) was > 88.8 µM and the TGI (MALME-3M melanoma) was > 100 µM. For the same molecule, the TGI (MCF7 breast) was 2.72 µM, the TGI (MDA-MB-231 breast) was > 73.6 µM and the TGI (MDA-MB-435) was > 100 µM. For the same molecule, the TGI (MDA-N) was > 100 µM, the TGI (MOLT-4 leukemia) was > 100 µM and the TGI (NCI-H226 lung) was > 93.6 µM. For the same molecule, the TGI (NCI-H23 lung) was > 84.2 µM, the TGI (NCI-H460 lung) was > 54.9 µM and the TGI (NCI-H522 lung) was > 100 µM. The TGI (NCI/ADR-RES ovarian) was > 100 µM, the TGI (OVCAR-3 ovarian) was > 68 µM and the TGI (OVCAR-5 ovarian) was > 100 µM. For the same molecule, the TGI (OVCAR-8 ovarian) was > 100 µM, the TGI (PC-3 prostate) was > 76.2 µM and the TGI (RPMI-8226 leukemia) was > 100 µM. For the same molecule, the TGI (RXF 393 renal) was 52.4 µM, the TGI (SF-268 CNS) was > 90.5 µM and the TGI (SF-295 CNS) was > 100 µM. For the same molecule, the TGI (SF-539 CNS) was 46.1 µM, the TGI (SK-MEL-2 melanoma) was > 68.4 µM and the TGI (SK-MEL-28 melanoma) was > 100 µM. The TGI (SK-MEL-5 melanoma) was > 82.3 µM, the TGI (SK-OV-3 ovarian) was > 100 µM and the TGI (SN12C renal) was > 100 µM. For the same molecule, the TGI (SNB-19 CNS) was > 88.5 µM, the TGI (SNB-75 CNS) was > 79.1 µM and the TGI (SR leukemia) was > 100 µM. The TGI (SW-620 colon) was > 100 µM, the TGI (T-47D breast) was > 100 µM and the TGI (TK-10 renal) was > 4.64 µM. The TGI (U251 CNS) was > 91.7 µM, the TGI (UACC-257 melanoma) was > 69.9 µM and the TGI (UACC-62 melanoma) was > 100 µM. The TGI (UO-31 renal) was 99.4 µM.
`O=S(=O)(O)c1c(Cl)c(Cl)c(O)c2ncccc12` gave a TGI (786-0 renal) of 21.1 µM, a TGI (A498 renal) of 26 µM and a TGI (A549 NSCLC) of 28.3 µM. The TGI (ACHN renal) was 26.2 µM, the TGI (BT-549 breast) was 67.3 µM and the TGI (CAKI-1 renal) was 65.4 µM. The TGI (CCRF-CEM leukemia) was 31.7 µM, the TGI (COLO 205 colon) was 31.8 µM and the TGI (DU-145 prostate) was 61.4 µM. It also gave a TGI (EKVX NSCLC) of 41.6 µM, a TGI (HCC-2998 colon) of 31.4 µM and a TGI (HCT-116 colon) of 16.6 µM. For the same molecule, the TGI (HCT-15 colon) was 27.1 µM, the TGI (HL-60(TB) leukemia) was 4.75 µM and the TGI (HOP-62 NSCLC) was 17.6 µM. The TGI (HOP-92 NSCLC) was 47.8 µM, the TGI (HS 578T breast) was 54.4 µM and the TGI (HT29 colon) was 24 µM. The TGI (IGROV1 ovarian) was 16 µM, the TGI (K-562 leukemia) was > 48.5 µM and the TGI (KM12 colon) was 33.2 µM. It also gave a TGI (LOX IMVI melanoma) of 7.99 µM, a TGI (M14 melanoma) of 27.1 µM and a TGI (MALME-3M melanoma) of 31.1 µM. The TGI (MCF7 breast) was 21.6 µM, the TGI (MDA-MB-231 breast) was > 93.1 µM and the TGI (MDA-MB-435) was 30.5 µM. The TGI (MDA-N) was 43.6 µM, the TGI (MOLT-4 leukemia) was 20.1 µM and the TGI (NCI-H226 lung) was 64.3 µM. The TGI (NCI-H23 lung) was 29.6 µM, the TGI (NCI-H460 lung) was 25.5 µM and the TGI (NCI-H522 lung) was 21.4 µM. The TGI (NCI/ADR-RES ovarian) was 49.7 µM, the TGI (OVCAR-3 ovarian) was 42.3 µM and the TGI (OVCAR-4 ovarian) was 47.1 µM. The TGI (OVCAR-5 ovarian) was 42 µM, the TGI (OVCAR-8 ovarian) was 51.3 µM and the TGI (PC-3 prostate) was > 59.6 µM. The TGI (RPMI-8226 leukemia) was > 83.6 µM, the TGI (RXF 393 renal) was 44.5 µM and the TGI (SF-268 CNS) was 13.8 µM. For the same molecule, the TGI (SF-295 CNS) was 33.2 µM, the TGI (SF-539 CNS) was > 56.7 µM and the TGI (SK-MEL-2 melanoma) was 45 µM. For the same molecule, the TGI (SK-MEL-28 melanoma) was 39.8 µM, the TGI (SK-MEL-5 melanoma) was 28.6 µM and the TGI (SK-OV-3 ovarian) was 25.8 µM. It also gave a TGI (SN12C renal) of 40.8 µM, a TGI (SNB-19 CNS) of 44.1 µM and a TGI (SNB-75 CNS) of 39.3 µM. The TGI (SR leukemia) was 27.6 µM, the TGI (SW-620 colon) was > 72.4 µM and the TGI (T-47D breast) was 22 µM. The TGI (TK-10 renal) was 27.4 µM, the TGI (U251 CNS) was 47.2 µM and the TGI (UACC-257 melanoma) was 97.6 µM. For the same molecule, the TGI (UACC-62 melanoma) was 29.7 µM and the TGI (UO-31 renal) was 22.7 µM.
